Measured values taken from patent publication US20240384268A1, “Oligonucleotides” (Hudson Institute of Medical Research, priority 2021, published 2024).
In the oligonucleotide strings, read from the 5' end, every base follows the letter of its sugar. An asterisk marks phosphorothioate; unmarked linkages are phosphodiester. Other units and linkages are bracketed, terminal groups are in braces. A string of capitals states the bases alone. d = 2'-deoxy (DNA); m = 2'-O-methyl

Key:
Format in all cases: cell-based
TLR3 = target: T1, TLR3 (Homo sapiens, UniProt O15455); assay: HEK-TLR3 NF-κB-luciferase reporter, poly(I:C) stimulation; design: host or cells: HEK-Blue hTLR3 (HEK293); conditions: 100 nM ASOs/ODNs, poly(I:C) 0.5 μg/ml
T1 sequence (O15455 24-904): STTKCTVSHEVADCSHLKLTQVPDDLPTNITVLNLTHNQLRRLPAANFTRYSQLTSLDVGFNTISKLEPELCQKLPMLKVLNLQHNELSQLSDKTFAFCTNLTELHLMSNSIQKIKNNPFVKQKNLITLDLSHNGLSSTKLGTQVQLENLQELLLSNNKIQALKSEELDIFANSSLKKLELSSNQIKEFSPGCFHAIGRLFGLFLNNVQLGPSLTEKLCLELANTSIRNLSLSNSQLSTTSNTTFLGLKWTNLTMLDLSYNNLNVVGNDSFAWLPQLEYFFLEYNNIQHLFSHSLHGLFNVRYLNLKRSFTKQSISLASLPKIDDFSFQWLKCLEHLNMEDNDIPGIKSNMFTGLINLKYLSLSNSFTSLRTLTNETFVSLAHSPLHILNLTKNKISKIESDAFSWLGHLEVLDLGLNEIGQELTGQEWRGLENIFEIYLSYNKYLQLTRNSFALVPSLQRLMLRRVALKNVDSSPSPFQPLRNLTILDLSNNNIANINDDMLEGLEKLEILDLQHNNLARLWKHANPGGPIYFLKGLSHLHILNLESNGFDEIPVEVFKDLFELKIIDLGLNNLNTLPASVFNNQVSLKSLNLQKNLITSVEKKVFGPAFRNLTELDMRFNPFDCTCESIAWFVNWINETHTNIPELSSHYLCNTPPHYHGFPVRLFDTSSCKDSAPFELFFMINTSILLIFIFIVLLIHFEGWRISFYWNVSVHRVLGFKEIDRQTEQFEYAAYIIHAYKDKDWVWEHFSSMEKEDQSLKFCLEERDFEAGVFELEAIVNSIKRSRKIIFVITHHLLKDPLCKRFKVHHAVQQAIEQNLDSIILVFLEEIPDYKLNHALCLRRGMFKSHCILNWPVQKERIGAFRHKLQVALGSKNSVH

human TLR9 = target: T2, human TLR9 (Homo sapiens, UniProt Q9NR96); assay: HEK-TLR9 NF-κB-luciferase reporter, ODN2006 stimulation; conditions: HEK-TLR9; 500 nM 2′OMe or PS oligos; 200 nM ODN2006
T2 construct: HA; host or cells: 293XL-hTLR9-HA (HEK293)
T2 sequence (Q9NR96 26-1032): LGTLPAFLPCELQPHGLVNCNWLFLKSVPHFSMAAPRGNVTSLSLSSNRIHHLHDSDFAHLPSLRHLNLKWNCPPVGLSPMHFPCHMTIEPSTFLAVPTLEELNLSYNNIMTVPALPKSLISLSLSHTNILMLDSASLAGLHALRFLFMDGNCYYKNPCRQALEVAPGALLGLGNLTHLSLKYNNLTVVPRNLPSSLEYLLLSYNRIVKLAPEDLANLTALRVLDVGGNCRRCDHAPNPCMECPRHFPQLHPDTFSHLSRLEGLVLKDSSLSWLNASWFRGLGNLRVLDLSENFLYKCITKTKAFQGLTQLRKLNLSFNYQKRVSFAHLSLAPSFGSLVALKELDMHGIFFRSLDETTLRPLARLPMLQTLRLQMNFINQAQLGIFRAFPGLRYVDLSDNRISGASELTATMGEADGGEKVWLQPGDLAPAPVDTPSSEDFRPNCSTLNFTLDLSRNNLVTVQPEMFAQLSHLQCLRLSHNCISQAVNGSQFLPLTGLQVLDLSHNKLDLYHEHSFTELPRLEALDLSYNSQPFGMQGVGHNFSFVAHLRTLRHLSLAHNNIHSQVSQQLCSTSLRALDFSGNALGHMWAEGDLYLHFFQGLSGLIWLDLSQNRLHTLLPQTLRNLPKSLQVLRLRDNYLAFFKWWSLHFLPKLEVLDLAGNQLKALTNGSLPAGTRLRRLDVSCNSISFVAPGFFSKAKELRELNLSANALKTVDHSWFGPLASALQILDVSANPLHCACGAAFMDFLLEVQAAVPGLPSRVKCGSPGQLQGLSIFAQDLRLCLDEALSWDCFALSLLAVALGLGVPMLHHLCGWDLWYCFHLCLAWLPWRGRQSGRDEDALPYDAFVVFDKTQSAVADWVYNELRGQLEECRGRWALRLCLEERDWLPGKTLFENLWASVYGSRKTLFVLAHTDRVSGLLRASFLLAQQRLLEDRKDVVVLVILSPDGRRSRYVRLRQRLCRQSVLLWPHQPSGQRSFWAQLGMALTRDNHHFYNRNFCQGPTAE
Experimental: In such examples, inhibition of TLR9 activity can be identified by observation of an overall decreased TLR9 response of the cell population, or a lower proportion of cells having TLR9-positive activity as compared to positive control condition in which cells are treated with TLR9 agonist in the absence of the oligonucleotide (or in the presence of an appropriate control inhibitory agent). In one example, HEK cells are transfected with TLR9 and a NF-κB reporter and incubated with an oligonucleotide and then stimulated with a TLR9 agonist. TLR9 activity can then be determined by a luciferase assay. TLR9 activity can also be analysed by measuring cytokine levels (e.g., IFN, IL-6, TNF and IL-12), for example by ELISA.
(§1) For cGAS stimulations, cells were treated for indicated duration with ASOs, prior to transfection with ISD70 (human cells) or ISD45 (mouse cells) (the ASOs were not washed off prior to ISD transfection unless otherwise indicated). The cGAS ligands ISD45 (Stetson and Medzhitov, 2006) and ISD70 (also known as VACV-70 (Unterholzner et al., 2010)) (Table 1) were resuspended as follows: 5 1d of sense and 5 μl of antisense strands at 10 μg/μl were added to 90 μl PBS under sterile conditions, heated at 75° C. for 30 min, prior to letting cool down at room temperature and aliquoting (stock at 1 μg/1 l). The ISDs were transfected at a concentration of […] at a ratio of 1 μg:1 μl with Lipofectamine 2000 in Opti-MEM (Thermo Fisher Scientific). HEK-TLR3, HEK-TLR7 and […] were treated with indicated concentration of ASOs for 20-50 min, prior to stimulation with poly(I:C) (Invivogen), R848 (Invivogen), Motolimod (MedChemExpress) and the Class B CpG oligonucleotides ODN 2006 (synthesised by IDT and resuspended in RNase-free TE buffer [Table 1]), respectively. The TLR2/1 agonist PAM3CSK4 (Invivogen), the TLR4 agonist lipopolysaccharide (Invivogen), the Class B CpG oligonucleotides ODN 1826 (synthesised by IDT and resuspended in RNase-free TE buffer), the mouse Sting agonist DMXAA (Cayman) and the human STING agonist (compound #3 from (Raanjulu et al., 2018), referred to as GSK herein—kind gift from Cancer Therapeutics CRC, Australia) were used at indicated concentrations. Aspirin (Sigma—A2093) was resuspended in pure medium to 10 mM, filter sterilised and added to the cells at 2 mM final. All ASOs were synthesised by Integrated DNA Technologies (IDT), and resuspended in RNase-free TE buffer, pH 8.0 (Thermo Fisher Scientific). Cell viability was assessed by adding 1× fresh resazurin solution to the wells (10λ solution made up with 7 mg resazurin [Sigma—R7017] dissolved in 3.5 ml PBS, sterile filtered at […]) for 4 h, prior to reading at with a Fluostar OPTIMA (BMG LABTECH) plate-reader (fluorescence: Excitation 535 nm, Emission 590); wells with medium only and 1× resazurin were used as blanks.
Following transfection, the cells were collected from the 6-wells and aliquoted into 96-wells, just before ASO and overnight TLR stimulation (as above described). Similarly, the LL171 cells expressing and ISRE-Luc reporter were treated overnight. The next day, the cells were lysed in 40 μl (for a 96-well plate) of 1× Glo Lysis buffer (Promega) for 10 min at room temperature. […] was then subjected to firefly luciferase assay using 40 μl of Luciferase Assay Reagent (Promega). Luminescence was quantified with a Fluostar OPTIMA (BMG LABTECH) luminometer.

cGAS [1] = target: T3, cGAS (Homo sapiens, UniProt Q8N884); assay: ISD70-driven IP-10 (and IFN-β) production in THP-1 cells, ELISA; design: endogenous in cells; host or cells: THP-1 (undifferentiated); conditions: THP-1; 2′OMe or PS oligos, 100-250 nM, pre-treatment as in figure legends; ISD70 2.5 μg/ml
Experimental: The ability of an oligonucleotide to inhibit cGAS activity can, for example, be analysed by incubating cells which express cGAS with an oligonucleotide, then stimulating said cells with a cGAS agonist (e.g., 70-bp interferon stimulating DNA or ISD70; 45-bp interferon stimulating DNA or ISD45), and analysing the overall cGAS response in the cell population, or analysing the proportion of cells having cGAS-positive activity after a defined period of time.
(§2) In such examples, inhibition of cGAS activity can be identified by observation of an overall decreased cGAS response of the cell population, or a lower proportion of cells having cGAS-positive activity as compared to positive control condition in which cells are treated with cGAS agonist in the absence of the oligonucleotide (or in the presence of an appropriate control inhibitory agent). In one example, THP-1 or HT-29 cells are transfected with ISD70 and incubated with an oligonucleotide. cGAS activity can then be determined by cytokine (e.g., IP-10 and/or IFNβ) expression (e.g., gene and/or protein expression) and/or secretion levels, such as by ELISA. A similar assay can be performed with LL171 cells transfected with ISD45. […] By way of example, cGAS enzymatic activity may be assessed in vitro using recombinant cGAS and then measuring activity thereof by way of a cGAMP ELISA.
as §1

mouse cGAS = target: T4, mouse cGAS (Mus musculus, UniProt Q8C6L5); assay: ISD45-driven ISRE-luciferase in mouse LL171 cells; conditions: 2′OMe or PS oligos 50-600 nM, ISD45 2.5 μg/ml overnight
T4 construct: endogenous in cells; host or cells: LL171 (mouse L929 cells with ISRE-Luciferase)
Experimental: as §2, §1
Following transfection, the cells were collected from the 6-wells and aliquoted into 96-wells, just before ASO and overnight TLR stimulation (as above described).

cGAS [2] = target: T3, cGAS; assay: ISD70-driven IP-10 production in HT-29 cells, ELISA; design: endogenous in cells; conditions: ISD70 24 h; for effect on ISD70-induced IP-10 production at increased doses (in words): ASO overnight at 250 or 500 nM; for effect on ISD70-induced IP-10 production at low dose (in words): ASO overnight at 125 nM (62.5-125 nM)
Experimental: as §2, §1
Human IP-10 and IFN-β levels were measured using supernatants from the different cultures and were quantified using IP-10 (BD Biosciences, #550926) or IFN-β (PBL assay science, #41415-1) ELISA kits respectively, according to the manufacturers' protocol. Tetramethylbenzidine substrate (Thermo Fisher Scientific) was used for quantification of the cytokines on a Fluostar OPTIMA (BMG LABTECH) plate-reader.

T3 sequence (Q8N884 whole entry): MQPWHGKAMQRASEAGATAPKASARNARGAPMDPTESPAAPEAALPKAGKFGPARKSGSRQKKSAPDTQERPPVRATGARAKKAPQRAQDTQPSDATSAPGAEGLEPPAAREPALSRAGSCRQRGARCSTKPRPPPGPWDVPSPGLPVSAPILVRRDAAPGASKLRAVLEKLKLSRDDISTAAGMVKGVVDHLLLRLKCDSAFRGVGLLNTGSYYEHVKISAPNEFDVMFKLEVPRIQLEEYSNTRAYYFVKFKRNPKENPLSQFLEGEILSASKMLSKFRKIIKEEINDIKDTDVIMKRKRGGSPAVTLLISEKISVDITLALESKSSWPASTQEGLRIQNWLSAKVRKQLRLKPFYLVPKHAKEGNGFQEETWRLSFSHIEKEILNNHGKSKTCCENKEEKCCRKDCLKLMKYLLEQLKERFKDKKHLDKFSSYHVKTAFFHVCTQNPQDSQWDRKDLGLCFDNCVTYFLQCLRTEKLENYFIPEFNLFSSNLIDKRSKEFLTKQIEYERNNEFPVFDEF
T4 sequence (Q8C6L5 whole entry): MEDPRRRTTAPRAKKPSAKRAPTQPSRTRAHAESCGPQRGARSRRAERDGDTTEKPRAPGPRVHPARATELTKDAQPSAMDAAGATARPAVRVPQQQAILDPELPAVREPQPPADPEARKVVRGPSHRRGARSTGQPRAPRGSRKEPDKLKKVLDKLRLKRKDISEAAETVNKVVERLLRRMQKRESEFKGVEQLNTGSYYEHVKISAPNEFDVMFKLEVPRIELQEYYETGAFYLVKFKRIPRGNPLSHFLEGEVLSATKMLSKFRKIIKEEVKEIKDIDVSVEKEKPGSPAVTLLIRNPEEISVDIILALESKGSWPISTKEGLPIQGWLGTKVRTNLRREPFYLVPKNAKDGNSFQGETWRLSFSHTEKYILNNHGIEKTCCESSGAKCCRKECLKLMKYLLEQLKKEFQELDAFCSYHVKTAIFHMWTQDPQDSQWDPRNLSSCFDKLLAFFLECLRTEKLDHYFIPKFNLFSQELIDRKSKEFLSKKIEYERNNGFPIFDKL

| Substance | inhibition of TLR9 sensing of ODN2006 (in words) (human TLR9) | effect on ISD70-induced IP-10 production at low dose (in words) (cGAS [2]) | also measured |
| --- | --- | --- | --- |
| mG*mG*mU*mC*mU*T*G*G*C*T*T*C*G*T*G*mG*mA*mG*mC*mA (mG*mG*mU*mC*mU*dT*dG*dG*dC*dT*dT*dC*dG*dT*dG*mG*mA*mG*mC*mA; antisense) [ASO5] | significantly inhibited TLR9 sensing of ODN2006 |  | inhibition of polyI:C sensing by TLR3 at 100 nM (in words) (TLR3): retained significant inhibition of polyL:C sensing |
| G*C*G*G*T*A*T*C*C*A*T*G*T*C*C*C*A*G*G*C (GCGGTATCCATGTCCCAGGC; DNA, all phosphorothioate, methylation of C not given here) [C2-Mut1-PS] |  |  | inhibition of ISD70-driven IP-10 production (in words) (cGAS [1]): significantly decreased; inhibition of ISD45-driven ISRE-luciferase (in words) (mouse cGAS): significantly decreased |
| mC*mU*mU*mU*mA*G*T*C*G*T*A*G*T*T*G*mC*mU*mU*mC*mC (CUUUAGTCGTAGTTGCUUCC; sugars from the 5' end m5 d10 m5, all phosphorothioate, methylation of C not given here) [ASO11] | lacked the capacity to inhibit TLR9 |  | effect on ISD70-induced IP-10 production at increased doses (in words) (cGAS [2]): blocked ISD70-induced IP-10 production |
| mG*mC*mG*mG*mU*A*T*A*C*A*G*G*T*C*C*mC*mA*mG*mG*mC (GCGGUATACAGGTCCCAGGC; sugars from the 5' end m5 d10 m5, all phosphorothioate, methylation of C not given here) [C2-Mut2] |  | increased inhibitory activity |  |
| mU*mC*mC*mG*mG*C*C*T*C*G*G*A*G*T*C*mU*mC*mC*mA*mU (mU*mC*mC*mG*mG*dC*dC*dT*dC*dG*dG*dA*dG*dT*dC*mU*mC*mC*mA*mU; antisense) [ASO2up] |  | more potent inhibitor of ISD70-driven IP-10 production than ASO2 |  |
| mU*mC*mC*mG*mG*C*C*T*C*G*G*C*A*G*A*mU*mA*mU*mC*mG (mU*mC*mC*mG*mG*dC*dC*dT*dC*dG*dG*dC*dA*dG*dA*mU*mA*mU*mC*mG; antisense) [ASO2down] | significantly reduced TLR9 inhibition | significantly increased IP-10 production | inhibition of ISD70-driven IP-10 production (in words) (cGAS [1]): significantly less inhibitory than ASO2up |
| mU*mG*mA*mU*mU*C*C*A*A*A*G*C*C*A*G*mG*mG*mU*mU*mA (mU*mG*mA*mU*mU*dC*dC*dA*dA*dA*dG*dC*dC*dA*dG*mG*mG*mU*mU*mA) [ASO10] | significantly inhibited TLR9 sensing of ODN2006 |  | effect on ISD70-induced IP-10 production at increased doses (in words) (cGAS [2]): blocked ISD70-induced IP-10 production |
